Data reported in US8642597B2, “Pyrazole compounds for controlling invertebrate pests” (BASF SE, priority 2007, dated 2014).

Columns and labels:
Assay type in all cases: in vivo
[1] = system: Vetch Aphid (Megoura viciae); assay: Vetch aphid (Megoura viciae), bean leaf disk microtiterplate test; settings: foliar, 144 h, concentration of the test solution 2500 mg/L, 6 days
Procedure: The active compounds were formulated in 1:3 (vol:vol) DMSO:water with different concentrations of formulated compounds.
Bean leaf disks were placed into microtiterplates filled with 0.8% agar-agar and 2.5 ppm OPUS™. The leaf disks were sprayed with 2.5 μl of the test solution and 5 to 8 adult aphids were placed into the microtiterplates which were then closed and kept at 23±1° C. and 50±5% relative humidity under fluorescent light for 6 days. Mortality was assessed on the basis of vital, reproduced aphids. Aphid mortality and fecundity was then visually assessed.

[2] = system: Cotton Aphid (aphis gossypii, Mixed Life Stages); assay: Cotton aphid (aphis gossypii, mixed life stages), cotyledon dip test; settings: 120 h, mortality counts after 5 days, in comparison with untreated controls
Text: (§1) The active compounds were formulated in 50:50 (vol:vol) acetone:water and 100 ppm Kinetica™ surfactant.
Cotton plants at the cotyledon stage (one plant per pot) were infested by placing a heavily infested leaf from the main colony on top of each cotyledon. The aphids were allowed to transfer to the host plant overnight, and the leaf used to transfer the aphids was removed. The cotyledons were dipped in the test solution and allowed to dry. After 5 days, mortality counts were made.

[3] = system: Green Peach Aphid (Myzus persicae, Mixed Life Stages); assay: Green peach aphid (Myzus persicae, mixed life stages), pepper leaf dip test; settings: foliar, 120 h, after 5 days, in comparison with untreated controls
Text: as §1
Pepper plants in the 2nd leaf-pair stage (variety ‘California Wonder’) were infested with approximately 40 laboratory-reared aphids by placing infested leaf sections on top of the test plants. The leaf sections were removed after 24 hr. The leaves of the intact plants were dipped into gradient solutions of the test compound and allowed to dry. Test plants were maintained under fluorescent light (24 hour photoperiod) at about 25° C. and 20-40% relative humidity. Aphid mortality on the treated plants, relative to mortality on check plants, was determined after 5 days.

Bean Aphid (Aphis fabae) = assay: Bean aphid (Aphis fabae), nasturtium plant dip test; settings: 72 h, after 3 days, in comparison with untreated controls
Text: as §1
Nasturtium plants grown in Metro mix in the 1st leaf-pair stage (variety ‘Mixed Jewel’) were infested with approximately 2-30 laboratory-reared aphids by placing infested cut plants on top of the test plants. The cut plants were removed after 24 hr. Each plant was dipped into the test solution to provide complete coverage of the foliage, stem, protruding seed surface and surrounding cube surface and allowed to dry in the fume hood. The treated plants were kept at about 25° C. with continuous fluorescent light. Aphid mortality is determined after 3 days.

[4] = system: Cowpea Aphid (aphis craccivora); assay: Cowpea aphid (aphis craccivora), spray on potted cowpea plants; settings: population reduction assessed after 24, 72 and 120 hours, in comparison with untreated controls
Procedure: The active compounds were formulated in 50:50 (vol:vol) acetone:water. The test solution was prepared at the day of use.
Potted cowpea plants colonized with 100-150 aphids of various stages were sprayed after the pest population had been recorded. Population reduction was assessed after 24, 72, and 120 hours.

[5] = system: Boll Weevil (Anthonomus grandis); assay: Boll weevil (Anthonomus grandis), insect diet microtiter plate test; settings: 120 h, concentration of the test solution 2500 mg/L, egg and larval mortality after 5 days
Procedure: The compounds were formulated in 75:25 (vol:vol) water:DMSO.
For evaluating control of boll weevil (Anthonomus grandis) the test unit consisted of 24-well-microtiter plates containing an insect diet and 20-30 A. grandis eggs. Different concentrations of formulated compounds were sprayed onto the insect diet at 20 μl, using a custom built micro atomizer, at two replications. After application, the microtiter plates were incubated at 23±1° C. and 50±5% relative humidity for 5 days. Egg and larval mortality was then visually assessed.

[6] = system: Mediterranean Fruitfly (Ceratitis capitata); assay: Activity against Mediterranean fruitfly (Ceratitis capitata), insect diet microtiter plate test; settings: 120 h, eggs treated with 2500 ppm, egg and larval mortality after 5 days
Procedure: The active compounds were formulated in 1:3 (vol:vol) DMSO:water.
For evaluating control of Mediterranean fruitfly the test unit consisted of microtiter plates containing an insect diet and 50 to 80 C. capitata eggs.
Different concentrations of formulated compounds were sprayed onto the insect diet at 5 μl, using a custom built micro atomizer, at two replications. After application, microtiter plates were incubated at 28±1° C. and 80±5% relative humidity for 5 days. Egg and larval mortality was then visually assessed.

[7] = system: Silverleaf Whitefly (bemisia argentifolii, adult); assay: Silverleaf whitefly (bemisia argentifolii, adult), cotton cotyledon dip test; settings: 72 h, 3 days after treatment, in comparison with untreated controls
Procedure: as §1
Selected cotton plants were grown to the cotyledon state (one plant per pot). The cotyledons were dipped into the test solution to provide complete coverage of the foliage and placed in a well-vented area to dry. Each pot with treated seedling was placed in a plastic cup and 10 to 12 whitefly adults (approximately 3-5 day old) were introduced. The insects were collected using an aspirator and an 0.6 cm, non-toxic Tygon® tubing (R-3603) connected to a barrier pipette tip. The tip, containing the collected insects, was then gently inserted into the soil containing the treated plant, allowing insects to crawl out of the tip to reach the foliage for feeding. The cups were covered with a reusable screened lid (150 micron mesh polyester screen PeCap from Tetko Inc). Test plants were maintained in the holding room at about 25° C. and 20-40% relative humidity for 3 days avoiding direct exposure to the fluorescent light (24 hour photoperiod) to prevent trapping of heat inside the cup. Mortality was assessed 3 days after treatment of the plants.

[8] = system: Brown Planthopper (nilaparvata lugens); assay: Brown planthopper (nilaparvata lugens), rice seedling spray test; settings: after 72 hours, in comparison with untreated controls
Procedure: The active compounds were formulated as a 50:50 (vol:vol) acetone:water solution. Surfactant (Alkamuls EL 620) was added at the rate of 0.1% (vol/vol).
Rice seedlings were cleaned and washed 24 h before spraying. Potted rice seedlings were sprayed with 5 ml test solution, air dried, placed in cages and inoculated with 10 adults. Treated rice plants were kept at 28-29° C. and relative humidity of 50-60%. Percent mortality was recorded after 72 hours.

[9] = system: Southern Armyworm (spodoptera eridania, 2nd instar larvae); assay: Southern armyworm (spodoptera eridania, 2nd instar larvae), lima bean leaf dip test; settings: foliar, 96 h, at 4 days, in comparison with untreated controls
Procedure: as §1
A pair of first true leaves of Sieva lima bean was dipped in the test solution and allowed to dry. The leaf was then placed in a plastic perforated zip enclosure bag and ten 2nd instar larvae were added. At 4 days, observations were made of mortality and reduced feeding.

Compound `CCc1c(C(=O)Nc2cccnc2)cnn1-c1ccc(Cl)cc1` [Compound 143] has a mortality at 2500 µg/mL [1] of no less than 80%, a mortality at 300 ppm [2] of no less than 75% and a mortality at 300 ppm [3] of no less than 50%. It also gave a mortality at 10 ppm (Bean Aphid (Aphis fabae)) of no less than 90%, a mortality at 300 ppm [4] of no less than 75% and a mortality at 2500 µg/mL [5] of 100%.

Work on `Cc1c(C(=O)Nc2cccnc2)cnn1-c1ccc([N+](=O)[O-])cc1` [Compound 231] yielded a mortality at 2500 µg/mL [1] of no less than 80% and a mortality at 2500 ppm [6] of 50%.

For `CCn1cc(C(=O)Nc2cccnc2)c(C(F)F)n1` [Compound 181], the mortality at 2500 µg/mL [1] was no less than 80%, the mortality at 300 ppm [2] was no less than 75% and the mortality at 300 ppm [3] was no less than 50%. It also gave a mortality at 2500 ppm [6] of 50% and a mortality at 300 ppm [4] of no less than 75%.

Compound `CCc1c(C(=O)Nc2cccnc2)cnn1CC` [Compound 184] has a mortality at 2500 µg/mL [1] of no less than 80%, a mortality at 300 ppm [2] of no less than 75% and a mortality at 300 ppm [3] of no less than 50%. For the same compound, the mortality at 2500 ppm [6] was 50% and the mortality at 300 ppm [4] was no less than 75%.

Compound `Cc1nn(-c2ccccc2)cc1C(=O)Nc1cccnc1` [Compound 84] has a mortality at 300 ppm [7] of no less than 50% and a mortality at 2500 ppm [6] of 50%.

In the case of `O=C(Nc1cccnc1)c1cnn(-c2ccc(F)cc2)c1C(F)F` [Compound 94], the mortality at 2500 µg/mL [1] was no less than 80%, the mortality at 300 ppm [2] was no less than 75% and the mortality at 300 ppm [3] was no less than 50%. For the same compound, the mortality at 10 ppm (Bean Aphid (Aphis fabae)) was no less than 90%, the mortality at 300 ppm [4] was no less than 75% and the mortality at 2500 µg/mL [5] was 100%.

For `CN(C(=O)c1cn(C(F)F)nc1C(F)(F)F)c1cccnc1` [Compound 195], the mortality at 2500 µg/mL [1] was no less than 80%, the mortality at 300 ppm [2] was no less than 75% and the mortality at 300 ppm [3] was no less than 50%. The mortality at 300 ppm [8] was no less than 50% and the mortality at 300 ppm [4] was no less than 75%.

For `CN(C(=O)c1cn(C)nc1C(F)(F)F)c1cccnc1` [Compound 29, 1-Methyl-3-trifluoromethyl-1H-pyrazole-4-carboxylic acid methyl-pyridin-3-yl-amide], the mortality at 2500 µg/mL [1] was no less than 80%, the mortality at 300 ppm [7] was no less than 50% and the mortality at 300 ppm [2] was no less than 75%. For the same compound, the mortality at 300 ppm [3] was no less than 50%, the mortality at 10 ppm (Bean Aphid (Aphis fabae)) was no less than 90% and the mortality at 300 ppm [4] was no less than 75%.

`O=C(Nc1cccnc1)c1cn(CC(F)F)nc1C(F)(F)F` [Compound 232] was tested, and the mortality at 2500 µg/mL [1] was no less than 80% and the mortality at 2500 ppm [6] was 50%.

Work on `CCCc1c(C(=O)Nc2cccnc2)cnn1-c1ccc(Cl)cc1` [Compound 79] yielded a mortality at 300 ppm [3] of no less than 50%, a mortality at 300 ppm [9] of no less than 50% and a mortality at 2500 ppm [6] of 50%. It also gave a mortality at 300 ppm [4] of no less than 75%.
